From patent US20180200257A1, “METHODS FOR THE TREATMENT OF INFLAMMATORY DISORDERS” (Galapagos NV, priority 2015, published 2018)

Tested on: Subjects With Active Crohn's Disease With Evidence of Mucosal Ulceration
Experiment: Study 3 - Aspartate Aminotransferase (AST) levels
Type: in vivo, human
Text: Double-Blind, Randomized, Placebo-Controlled, Multi-Centre Study to Investigate the Efficacy and Safety of Compound 1 in Subjects With Active Crohn's Disease With Evidence of Mucosal Ulceration. This is a double-blind, randomized, placebo-controlled, multi-centre Phase 2 study to investigate the efficacy and safety of Compound 1 administered once daily for the treatment of active CD with evidence of mucosal ulceration. The pharmacokinetics (including a PK substudy) and pharmacodynamics of Compound 1 and metabolite in CD will also be characterised. A total of 180 eligible subjects will be randomized to receive Compound 1 or placebo in addition to their stable background treatment (eg, corticosteroids, aminosalicylates, or CD-related antibiotics). The study will consist of 2 parts, with total treatment duration of 20 weeks. Randomization in Part 1 will be stratified according the subject's previous anti-TNF exposure/response, CRP level at Screening, and oral corticosteroid use at visit Day −1. After the first 10 weeks of treatment in Part 1, patients will be re-randomized for Part 2 as shown in the diagram below and will be stratified according to the subject's clinical response, previous anti-TNF exposure/response, and oral corticosteroid use at visit Day -1. [table] AST levels determination is available at Quest Diagnostics, Clinical Trials, Quest House, 125-135 Staines Road, Hounslow, Middlesex, TW3 3JB, United Kingdom under Catalogue n#84450. For Study 3, the data are obtained at BARC Europe, 3B,Industrie Park, Zwijnaarde, B-9052 Ghent, Belgium. AST catalyzes the transamination of aspartate and 2-oxoglutarate, forming L-glutamate and oxalacetate. The oxalacetate is reduced to L-malate by malate dehydrogenase, whilst NADH is converted to NAD+, measured spectrophotometrically. Guidelines for the AST value have been issued by the association for Clinical Biochemistry and Laboratory Medicine, 130-132 Tooley Street LONDON SE1 2TU, united Kingdom, wherein the AST value should be below 34 U/l in Female and below 45 U/L in male. As disclosed in the respective study protocols for Study 1 or 2, at week 12, depending on the outcome of their treatment, the subjects may be continued in their initial treatment course, or reassigned to another treatment group in a randomized blinded fashion until week 24. Therefore, the number of subjects (N) for the period of either 12 weeks, or 24 weeks is provided to reflect this redistribution at week 12.

[1] = 10 weeks results, 200 mg q.d., week 2
[2] = 10 weeks results, 200 mg q.d., week 4
[3] = 10 weeks results, 200 mg q.d., week 6
[4] = 10 weeks results, 200 mg q.d., week 10
[5] = 20 weeks results, 200 mg q.d. week 0 to 10, to 100 mg q.d. week 10 to 20, week 2
[6] = 20 weeks results, 200 mg q.d. week 0 to 10, to 100 mg q.d. week 10 to 20, week 4
[7] = 20 weeks results, 200 mg q.d. week 0 to 10, to 100 mg q.d. week 10 to 20, week 6
[8] = 20 weeks results, 200 mg q.d. week 0 to 10, to 100 mg q.d. week 10 to 20, week 10
[9] = 20 weeks results, 200 mg q.d. week 0 to 10, to 100 mg q.d. week 10 to 20, week 12
[10] = 20 weeks results, 200 mg q.d. week 0 to 10, to 100 mg q.d. week 10 to 20, week 16
[11] = 20 weeks results, 200 mg q.d. week 0 to 10, to 100 mg q.d. week 10 to 20, week 20
[12] = 20 weeks results, 200 mg q.d. week 0 to 10, to placebo week 10 to 20, week 2
[13] = 20 weeks results, 200 mg q.d. week 0 to 10, to placebo week 10 to 20, week 4
[14] = 20 weeks results, 200 mg q.d. week 0 to 10, to placebo week 10 to 20, week 6
[15] = 20 weeks results, 200 mg q.d. week 0 to 10, to placebo week 10 to 20, week 10
[16] = 20 weeks results, 200 mg q.d. week 0 to 10, to placebo week 10 to 20, week 12
[17] = 20 weeks results, 200 mg q.d. week 0 to 10, to placebo week 10 to 20, week 16
[18] = 20 weeks results, 200 mg q.d. week 0 to 10, to placebo week 10 to 20, week 20
[19] = 20 weeks results, continued 200 mg q.d., week 2
[20] = 20 weeks results, continued 200 mg q.d., week 4
[21] = 20 weeks results, continued 200 mg q.d., week 6
[22] = 20 weeks results, continued 200 mg q.d., week 10
[23] = 20 weeks results, continued 200 mg q.d., week 12
[24] = 20 weeks results, continued 200 mg q.d., week 16
[25] = 20 weeks results, continued 200 mg q.d., week 20
[26] = 20 weeks results, placebo week 0 to 10, to 100 mg q.d. week 10 to 20, week 12
[27] = 20 weeks results, placebo week 0 to 10, to 100 mg q.d. week 10 to 20, week 16
[28] = 20 weeks results, placebo week 0 to 10, to 100 mg q.d. week 10 to 20, week 20

O=C(Nc1nc2cccc(-c3ccc(CN4CCS(=O)(=O)CC4)cc3)n2n1)C1CC1 [Compound 1, cyclopropanecarboxylic acid {5-[4-(1,1-dioxo-thiomorpholin-4-ylmethyl)-phenyl]-[1,2,4]triazolo[1,5-a]pyridin-2-yl}-amide]
Study 3 - AST Mean CFB [1]: 3.0 IU/L | Study 3 - AST Mean percentage CFB [1]: 20.1% | Study 3 - AST Mean CFB [2]: 1.5 IU/L | Study 3 - AST Mean percentage CFB [2]: 13.4% | Study 3 - AST Mean CFB [3]: 1.3 IU/L | Study 3 - AST Mean percentage CFB [3]: 12.0% | Study 3 - AST Mean CFB [4]: 5.4 IU/L | Study 3 - AST Mean percentage CFB [4]: 38.7% | Study 3 - AST Mean CFB [5]: 1.50 IU/L | Study 3 - AST Mean percentage CFB [5]: 11.88% | Study 3 - AST Mean CFB [6]: 3.28 IU/L | Study 3 - AST Mean percentage CFB [6]: 19.48% | Study 3 - AST Mean CFB [7]: 1.40 IU/L | Study 3 - AST Mean percentage CFB [7]: 10.05% | Study 3 - AST Mean CFB [8]: 3.90 IU/L | Study 3 - AST Mean percentage CFB [8]: 23.93% | Study 3 - AST Mean CFB [9]: 1.13 IU/L | Study 3 - AST Mean percentage CFB [9]: 10.30% | Study 3 - AST Mean CFB [10]: 2.82 IU/L | Study 3 - AST Mean percentage CFB [10]: 20.91% | Study 3 - AST Mean CFB [11]: 8.15 IU/L | Study 3 - AST Mean percentage CFB [11]: 50.50% | Study 3 - AST Mean CFB [12]: 0.96 IU/L | Study 3 - AST Mean percentage CFB [12]: 8.86% | Study 3 - AST Mean CFB [13]: 1.96 IU/L | Study 3 - AST Mean percentage CFB [13]: 13.24% | Study 3 - AST Mean CFB [14]: 1.87 IU/L | Study 3 - AST Mean percentage CFB [14]: 12.17% | Study 3 - AST Mean CFB [15]: 7.17 IU/L | Study 3 - AST Mean percentage CFB [15]: 45.50% | Study 3 - AST Mean CFB [16]: 2.87 IU/L | Study 3 - AST Mean percentage CFB [16]: 14.82% | Study 3 - AST Mean CFB [17]: 2.62 IU/L | Study 3 - AST Mean percentage CFB [17]: 16.62% | Study 3 - AST Mean CFB [18]: 3.14 IU/L | Study 3 - AST Mean percentage CFB [18]: 21.09% | Study 3 - AST Mean CFB [19]: 4.24 IU/L | Study 3 - AST Mean percentage CFB [19]: 26.67% | Study 3 - AST Mean CFB [20]: 0.73 IU/L | Study 3 - AST Mean percentage CFB [20]: 11.03% | Study 3 - AST Mean CFB [21]: 1.12 IU/L | Study 3 - AST Mean percentage CFB [21]: 12.72% | Study 3 - AST Mean CFB [22]: 5.61 IU/L | Study 3 - AST Mean percentage CFB [22]: 43.70% | Study 3 - AST Mean CFB [23]: 1.64 IU/L | Study 3 - AST Mean percentage CFB [23]: 18.27% | Study 3 - AST Mean CFB [24]: 3.78 IU/L | Study 3 - AST Mean percentage CFB [24]: 32.98% | Study 3 - AST Mean CFB [25]: 1.53 IU/L | Study 3 - AST Mean percentage CFB [25]: 19.45% | Study 3 - AST Mean CFB [26]: 1.64 IU/L | Study 3 - AST Mean percentage CFB [26]: 16.84% | Study 3 - AST Mean CFB [27]: 0.68 IU/L | Study 3 - AST Mean percentage CFB [27]: 10.89% | Study 3 - AST Mean CFB [28]: 1.10 IU/L | Study 3 - AST Mean percentage CFB [28]: 16.93%
